Earlier results in patent US20060172021A1, “Herbal compositions for the prevention or treatment of symptoms of stress and infection” (priority 2005, published 2006).

Key:
female mice = details: mouse, in vivo
[1] = test system: human progesterone production

Compound	Inhibition of prostaglandin synthesis (prostaglandin synthesis)	also measured
CCCCCC(=O)/C=C(O)/C=C\c1ccc(O)c(OC)c1 [dehydrogingerdione]	potent inhibitors	–
C=C1CC[C@@H]2[C@](C)(CO)[C@H](O)CC[C@@]2(C)[C@@H]1/C=C/C1=CCOC1=O [dehydroandrographolide]	–	Dose required to affect pregnancy (female mice): 250 mg/kg. of body weight. This amount of pure
CCCCC[C@H](O)CC(=O)CCc1ccc(O)c(OC)c1 [gingerol]	potent inhibitors	–
andrographolide sodium succinate	–	Detrimental effects on other normal human tissue [1]: intended for. There were no detrimental effects; Inhibition of human progesterone production ([1]; cultured human placental tissue): (derived from AP) was effective in inhibiting
CCCCCC(=O)CC(=O)CCc1ccc(O)c(OC)c1 [gingerdione]	potent inhibitors	–
